In patent US20080312184A1 (priority 2005, published 2008):
Like-named read-outs stand apart in the source and are kept apart here.

Tested on: late blight phenylamide-resistant strain (zoospore+zoosporangia)
Format: in vivo, tomatoes (cultivar: sekai-ichi)
Conditions: single active ingredient
[1] = Table 3, treated concentration 10 ppm, examined after 5 days
[2] = Table 3, treated concentration 5 ppm, examined after 5 days

Cc1ccc(-c2c(Cl)nc(C#N)n2S(=O)(=O)N(C)C)cc1 [Cyazofamid, cyazofamid]
Control Value [1]: 70

CSC1=N[C@@](C)(c2ccccc2)C(=O)N1Nc1ccccc1 [Fenamidone, fenamidone]
Control Value [1]: 58

COC(=O)N(OC)c1ccccc1COc1ccn(-c2ccc(Cl)cc2)n1 [Pyraclostrobin, pyraclostrobin]
Control Value (Table 9 (Example B), treated concentration 5 ppm): 62

CC(C)OC(=O)N[C@H](C(=O)N[C@H](C)c1nc2ccc(F)cc2s1)C(C)C [Benthiavalicarb-isopropyl, benthiavalicarb-isopropyl]
Control Value [2]: 70

CCNc1nc(CC)c(C(=O)NC(C#N)c2cccs2)s1 (centres unmarked) [Ethaboxam, ethaboxam]
Control Value [1]: 62

Cc1ccc(C(C)NC(=O)[C@@H](NC(=O)OC(C)C)C(C)C)cc1 (some centres unmarked) [Iprovalicarb, iprovalicarb]
Control Value [2]: 70

metiram
Control Value (Table 3, treated concentration 50 ppm, examined after 5 days): 56

CC(C)CC(C)c1sccc1NC(=O)c1cn(C)nc1C(F)(F)F (racemic) [P (penthiopyrad), (RS)—N-[2-(1,3-dimethylbutyl)thiophen-3-yl]-1-methyl-3-tri fluoromethyl-1H-pyrazole-4-carboxamide]
Control Value [1]: 20 | Control Value (Table 9 (Example B), treated concentration 10 ppm): 20

C[C@@]1(c2ccc(Oc3ccccc3)cc2)OC(=O)N(Nc2ccccc2)C1=O (racemic) [Famoxadone, famoxadone]
Control Value (Table 3, treated concentration 20 ppm, examined after 5 days): 62

CCC(C)(NC(=O)c1cc(Cl)c(C)c(Cl)c1)C(=O)CCl (centres unmarked) [Zoxamide, zoxamide]
Control Value [1]: 60
